According to PubChem BioAssay (NCI):
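All cell lines were grown in 96-well plates and treated with compound for 48 hours. At the GI50, growth is halved. TGI: total growth inhibition.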

Legend:
Assay in all cases: NCI tumour cell line growth inhibition, 48 h
[1] = system: EKVX NSCLC
[2] = system: SNB-75 CNS
[3] = system: MDA-MB-435
[4] = system: SK-MEL-5 melanoma
[5] = system: 786-0 renal
[6] = system: MDA-MB-231 breast
[7] = system: SK-OV-3 ovarian
[8] = system: MDA-N
[9] = system: SF-295 CNS
[10] = system: SNB-19 CNS
[11] = system: UACC-62 melanoma
[12] = system: HCT-116 colon
[13] = system: OVCAR-5 ovarian
[14] = system: NCI-H460 lung
[15] = system: SF-539 CNS
[16] = system: LOX IMVI melanoma
[17] = system: PC-3 prostate
[18] = system: HOP-92 NSCLC
[19] = system: BT-549 breast
[20] = system: U251 CNS
[21] = system: SW-620 colon
[22] = system: SR leukemia
[23] = system: NCI-H23 lung
[24] = system: SN12C renal
[25] = system: OVCAR-4 ovarian
[26] = system: OVCAR-8 ovarian
[27] = system: IGROV1 ovarian
[28] = system: MOLT-4 leukemia
[29] = system: RPMI-8226 leukemia
[30] = system: CAKI-1 renal
[31] = system: UO-31 renal
[32] = system: OVCAR-3 ovarian
[33] = system: M14 melanoma
[34] = system: UACC-257 melanoma
[35] = system: SF-268 CNS
[36] = system: HOP-62 NSCLC
[37] = system: K-562 leukemia
[38] = system: NCI-H522 lung
[39] = system: T-47D breast
[40] = system: SK-MEL-2 melanoma
[41] = system: KM12 colon
[42] = system: ACHN renal
[43] = system: COLO 205 colon
[44] = system: RXF 393 renal
[45] = system: DU-145 prostate
[46] = system: HS 578T breast
[47] = system: HCT-15 colon
[48] = system: NCI-H226 lung
[49] = system: TK-10 renal
[50] = system: NCI/ADR-RES ovarian
[51] = system: MCF7 breast
[52] = system: A498 renal
[53] = system: CCRF-CEM leukemia
[54] = system: HL-60(TB) leukemia
[55] = system: A549 NSCLC
[56] = system: HCC-2998 colon
[57] = system: HT29 colon
[58] = system: MALME-3M melanoma
[59] = system: SK-MEL-28 melanoma

Work on `c1ccc(-c2ccc(N=NN3CCCC3)cc2)cc1` yielded a TGI [1] of over 100 µM, a TGI [2] of over 100 µM and a TGI [3] of over 100 µM. The TGI [4] was over 100 µM, the TGI [5] was over 100 µM and the TGI [6] was over 100 µM. It also gave a TGI [7] of over 100 µM, a TGI [8] of over 100 µM and a TGI [9] of over 100 µM. For the same compound, the TGI [10] was over 100 µM, the TGI [11] was over 100 µM and the TGI [12] was over 100 µM. It also gave a TGI [13] of over 100 µM, a TGI [14] of over 100 µM and a TGI [15] of over 100 µM. It also gave a TGI [16] of over 100 µM, a TGI [17] of over 100 µM and a TGI [18] of over 100 µM. It also gave a TGI [19] of over 100 µM, a TGI [20] of over 100 µM and a TGI [21] of over 100 µM. For the same compound, the TGI [22] was over 100 µM, the TGI [23] was over 100 µM and the TGI [24] was over 100 µM. For the same compound, the TGI [25] was over 100 µM, the TGI [26] was over 100 µM and the TGI [27] was over 100 µM. It also gave a TGI [28] of over 100 µM, a TGI [29] of over 100 µM and a TGI [30] of over 100 µM. The TGI [31] was over 100 µM, the TGI [32] was over 100 µM and the TGI [33] was over 100 µM. For the same compound, the TGI [34] was over 100 µM, the TGI [35] was over 100 µM and the TGI [36] was over 100 µM. The TGI [37] was over 100 µM, the TGI [38] was over 100 µM and the TGI [39] was over 100 µM. For the same compound, the TGI [40] was over 100 µM, the TGI [41] was over 100 µM and the TGI [42] was over 100 µM. The TGI [43] was over 100 µM, the TGI [44] was over 100 µM and the TGI [45] was over 100 µM. It also gave a TGI [46] of over 100 µM, a TGI [47] of over 100 µM and a TGI [48] of over 100 µM. The TGI [49] was over 100 µM, the TGI [50] was over 100 µM and the TGI [51] was over 100 µM. The TGI [52] was over 100 µM and the TGI [53] was over 100 µM.

In the case of `O=C(O)c1cc2ccccc2c(S(=O)(=O)O)c1O`, the TGI [1] is reported as over 100 µM, the TGI [2] is reported as over 100 µM and the TGI [3] is reported as over 100 µM. The TGI [4] was over 100 µM, the TGI [5] was over 100 µM and the TGI [6] was over 100 µM. The TGI [7] was over 100 µM, the TGI [8] was over 100 µM and the TGI [9] was over 100 µM. For the same compound, the TGI [10] was over 100 µM, the TGI [11] was over 100 µM and the TGI [12] was over 100 µM. The TGI [13] was over 100 µM, the TGI [54] was over 100 µM and the TGI [14] was over 100 µM. The TGI [15] was over 100 µM, the TGI [16] was over 100 µM and the TGI [17] was over 100 µM. The TGI [18] was over 100 µM, the TGI [19] was over 100 µM and the TGI [20] was over 100 µM. For the same compound, the TGI [21] was over 100 µM, the TGI [23] was over 100 µM and the TGI [24] was over 100 µM. For the same compound, the TGI [25] was over 100 µM, the TGI [55] was over 100 µM and the TGI [26] was over 100 µM. It also gave a TGI [27] of over 100 µM, a TGI [28] of over 100 µM and a TGI [56] of over 100 µM. The TGI [29] was over 100 µM, the TGI [30] was over 100 µM and the TGI [57] was over 100 µM. For the same compound, the TGI [31] was over 100 µM, the TGI [32] was over 100 µM and the TGI [33] was over 100 µM. For the same compound, the TGI [58] was over 100 µM, the TGI [34] was over 100 µM and the TGI [35] was over 100 µM. It also gave a TGI [36] of over 100 µM, a TGI [37] of over 100 µM and a TGI [38] of over 100 µM. The TGI [39] was over 100 µM, the TGI [40] was over 100 µM and the TGI [41] was over 100 µM. It also gave a TGI [42] of over 100 µM, a TGI [59] of over 100 µM and a TGI [43] of over 100 µM. It also gave a TGI [44] of over 100 µM, a TGI [45] of over 100 µM and a TGI [46] of over 100 µM. The TGI [47] was over 100 µM, the TGI [49] was over 100 µM and the TGI [50] was over 100 µM. It also gave a TGI [51] of over 100 µM, a TGI [52] of over 100 µM and a TGI [53] of over 100 µM.

With `COC(=O)[C@H]1C=C[C@H](OC2OC(COC(C)=O)C(OC(C)=O)C(OC(C)=O)C2OC(C)=O)n2c(=O)n(-c3ccccc3)c(=O)n21` (some centres undefined) the TGI [1] was 7.37 µM, the TGI [2] was 24.9 µM and the TGI [3] was 16.6 µM. The TGI [4] was over 22.4 µM, the TGI [5] was 14.7 µM and the TGI [6] was 24.5 µM. The TGI [7] was 32.6 µM, the TGI [8] was 18.5 µM and the TGI [9] was 26.9 µM. For the same compound, the TGI [10] was 31.3 µM, the TGI [11] was 3.01 µM and the TGI [12] was over 30.5 µM. It also gave a TGI [13] of 25.7 µM, a TGI [54] of over 100 µM and a TGI [14] of 10.5 µM. The TGI [15] was 4.44 µM, the TGI [17] was 22.6 µM and the TGI [18] was 3.9 µM. The TGI [19] was 9.14 µM, the TGI [20] was 27.9 µM and the TGI [21] was 5.68 µM. The TGI [22] was 8.33 µM, the TGI [23] was 15.6 µM and the TGI [24] was 19.9 µM. It also gave a GI50 [25] of 4.14 µM, a TGI [25] of 32.9 µM and a TGI [55] of 35.4 µM. The TGI [26] was 26.4 µM, the TGI [27] was 18.4 µM and the TGI [28] was 6.16 µM. It also gave a TGI [56] of 4.55 µM, a TGI [29] of 5.04 µM and a TGI [30] of 2.4 µM. For the same compound, the TGI [57] was 8.58 µM, the TGI [31] was 4.96 µM and the TGI [32] was 11.3 µM. The TGI [33] was 9.64 µM, the TGI [34] was 20.6 µM and the TGI [35] was over 47.1 µM. For the same compound, the TGI [36] was 21.1 µM, the TGI [37] was 4.91 µM and the TGI [38] was 0.504 µM. It also gave a TGI [39] of over 28.1 µM, a TGI [40] of 30.6 µM and a TGI [41] of 25.1 µM. For the same compound, the TGI [42] was 3.08 µM, the TGI [59] was 8.63 µM and the TGI [43] was 3.6 µM. It also gave a TGI [44] of 3.73 µM, a TGI [45] of 21.1 µM and a TGI [46] of 9.59 µM. The TGI [47] was 3.55 µM, the TGI [48] was 20.5 µM and the TGI [49] was 15.4 µM. For the same compound, the TGI [50] was 61.8 µM, the TGI [52] was 17.6 µM and the TGI [53] was 16.3 µM.

`CCN(CC(=O)O)CC(=O)O` was tested, and the TGI [1] was over 100 µM, the TGI [2] was over 100 µM and the TGI [3] was over 100 µM. It also gave a TGI [4] of over 100 µM, a TGI [5] of over 100 µM and a TGI [6] of over 100 µM. For the same compound, the TGI [7] was over 100 µM, the TGI [8] was over 100 µM and the TGI [9] was over 100 µM. The TGI [10] was over 100 µM, the TGI [11] was over 100 µM and the TGI [12] was over 100 µM. For the same compound, the TGI [13] was over 100 µM, the TGI [14] was over 100 µM and the TGI [15] was over 100 µM. For the same compound, the TGI [16] was over 100 µM, the TGI [17] was over 100 µM and the TGI [18] was over 100 µM. The TGI [19] was over 100 µM, the TGI [20] was over 100 µM and the TGI [21] was over 100 µM. The TGI [23] was over 100 µM, the TGI [24] was over 100 µM and the TGI [25] was over 100 µM. For the same compound, the TGI [55] was over 100 µM, the TGI [26] was over 100 µM and the TGI [27] was over 100 µM. The TGI [28] was over 100 µM, the TGI [56] was over 100 µM and the TGI [29] was over 100 µM. It also gave a TGI [30] of over 100 µM, a TGI [57] of over 100 µM and a TGI [31] of over 100 µM. It also gave a TGI [32] of over 100 µM, a TGI [33] of over 100 µM and a TGI [58] of over 100 µM. The TGI [34] was over 100 µM, the TGI [35] was over 100 µM and the TGI [36] was over 100 µM. The TGI [37] was over 100 µM, the TGI [38] was over 100 µM and the TGI [39] was over 100 µM. For the same compound, the TGI [40] was over 100 µM, the TGI [41] was over 100 µM and the TGI [42] was over 100 µM. The TGI [59] was over 100 µM, the TGI [43] was over 100 µM and the TGI [44] was over 100 µM. The TGI [45] was over 100 µM, the TGI [46] was over 100 µM and the TGI [47] was over 100 µM. For the same compound, the TGI [48] was over 100 µM, the TGI [49] was over 100 µM and the TGI [50] was over 100 µM. For the same compound, the TGI [51] was over 100 µM, the TGI [52] was over 100 µM and the TGI [53] was over 100 µM.
